Experimental data taken from publication PMC8465942, “Cyano- and Ketone-Containing Selenoesters as Multi-Target Compounds against Resistant Cancers” (Cancers, 2021).
Read-outs that look alike come from different tables or passages of the source. Marks after values point to notes of the source that are not given here. Values belong to the compound of their own block, whether it stands above or below them.

Tests used:
[1] = system: Colo 320/MDR-LRP human colonic adenocarcinoma cell line; experiment: Cytotoxicity (MTT) on resistant Colo 320 cells; assay type: cell-based; settings: for IC50: Homo sapiens, COLO 320, 24 h, MTT, read-out: Colo 320 (IC50 µM) Mean; for SI MRC-5/Colo 320: ratio IC50 non-tumour cells / IC50 cancer cells
Source text: (§1) Three cell lines have been used in this study: the doxorubicin-sensitive Colo 205 (CCL-222, ATCC, Manassas, VA, USA) human colonic adenocarcinoma cell line; the multidrug resistant Colo 320/MDR-LRP expressing P-gp (MDR1)-LRP (CCL-220.1, ATCC) human colonic adenocarcinoma cell line; and the MRC-5 human embryonal lung fibroblast cell line (CCL-171, ATCC). The colon adenocarcinoma cell lines were purchased from LGC Promochem (Teddington, UK), and the MRC-5 cell line was purchased from Sigma-Aldrich (Merck KGaA, Darmstadt, Germany). Their culture conditions are as follows: Colo 205 (CCL-222, ATCC) and Colo 320/MDR-LRP expressing P-gp (MDR1)-LRP (CCL-220.1, ATCC) human colon adenocarcinoma cell lines were cultured in RPMI 1640 medium, supplemented with 10% FBS, 2 mM L-glutamine, 1 mM Na-pyruvate, and […]. The cell lines were incubated at 37 °C, 5% CO2, and 95% air atmosphere. The semi-adherent human colon cancer cells were detached with a Trypsin-Versene (EDTA) solution for 5 min at 37 °C. MRC-5 human embryonal lung fibroblast cells were cultured in EMEM containing 4.5 g/L of glucose and supplemented with a non-essential amino acid mixture, a selection of vitamins, and 10% FBS. The cell lines were incubated at 37 °C, 5% CO2, and 95% air atmosphere.
(§2) The effects of increasing concentrations of the compounds on cell growth were tested in 96-well flat-bottomed microtiter plates. Moreover, 10^4 of human colonic adenocarcinoma cells in 100 μL of the medium (RPMI-1640) were added to each well, except for the medium control wells. The adherent human embryonic lung fibroblast cell line was seeded in the EMEM medium for 4 h before the assay. The two-fold serial dilutions of the compounds were made in a separate plate (0.19–100 μM), and then transferred to the plates containing the adherent corresponding cell line. Culture plates were incubated at 37 °C for 24 h. At the end of the incubation period, 20 μL of MTT (thiazolyl blue tetrazolium bromide) solution (from a 5 mg/mL stock solution) were added to each well. After incubation at 37 °C for 4 h, 100 μL of sodium dodecyl sulfate (SDS) solution (10% SDS in 0.01 M HCl) was added to each well, and the plates were further incubated at 37 °C overnight. Cell growth was determined by measuring the optical density (OD) at 540 nm (ref. 630 nm) with a Multiscan EX ELISA reader (Thermo Labsystems, Cheshire, WA, USA). Inhibition of cell growth was expressed as IC50 values, defined as the inhibitory dose that reduces the growth of the cells exposed to the tested compounds by 50%. IC50 values and the SD of triplicate experiments were calculated by using GraphPad Prism software version 5.00 for Windows, with a non-linear regression curve fit (GraphPad Software, San Diego, CA, USA; www.graphpad.com, accessed on 12 July 2021). Doxorubicin (from a 2 mg/mL stock solution, Teva Pharmaceuticals) was used as a positive control.
(§3) The selectivity indexes (SI) were calculated as the ratio of the IC50 value in the non-tumour cells and the IC50 in the cancer cell lines. The compound’s activity towards cancer cells is considered as strongly selective if the selectivity index (SI) value is higher than 6, moderately selective if 3 < SI < 6, slightly selective if 1 < SI < 3, and non-selective if SI is lower than 1 [16].

[2] = Cytotoxicity (MTT) on normal MRC-5 fibroblasts; assay type: cell-based; settings: human
Source text: as §1, §2

[3] = system: Colo 205 human colonic adenocarcinoma cell line; experiment: Cytotoxicity (MTT) on sensitive Colo 205 cells; assay type: cell-based; settings: for IC50: Homo sapiens, COLO 205, 24 h, MTT, read-out: Colo 205 (IC50 µM) Mean; for SI MRC-5/Colo 205: ratio IC50 non-tumour cells / IC50 cancer cells
Source text: as §1, §2, §3

[4] = biological target: ABCB1 (P-glycoprotein) in Colo 320 colonic adenocarcinoma cells (Homo sapiens, UniProt P08183); experiment: ABCB1 inhibition, rhodamine 123 accumulation by flow cytometry; settings: 0.2 µM
Sequence of ABCB1 (P-glycoprotein) in Colo 320 colonic adenocarcinoma cells (P08183 whole entry): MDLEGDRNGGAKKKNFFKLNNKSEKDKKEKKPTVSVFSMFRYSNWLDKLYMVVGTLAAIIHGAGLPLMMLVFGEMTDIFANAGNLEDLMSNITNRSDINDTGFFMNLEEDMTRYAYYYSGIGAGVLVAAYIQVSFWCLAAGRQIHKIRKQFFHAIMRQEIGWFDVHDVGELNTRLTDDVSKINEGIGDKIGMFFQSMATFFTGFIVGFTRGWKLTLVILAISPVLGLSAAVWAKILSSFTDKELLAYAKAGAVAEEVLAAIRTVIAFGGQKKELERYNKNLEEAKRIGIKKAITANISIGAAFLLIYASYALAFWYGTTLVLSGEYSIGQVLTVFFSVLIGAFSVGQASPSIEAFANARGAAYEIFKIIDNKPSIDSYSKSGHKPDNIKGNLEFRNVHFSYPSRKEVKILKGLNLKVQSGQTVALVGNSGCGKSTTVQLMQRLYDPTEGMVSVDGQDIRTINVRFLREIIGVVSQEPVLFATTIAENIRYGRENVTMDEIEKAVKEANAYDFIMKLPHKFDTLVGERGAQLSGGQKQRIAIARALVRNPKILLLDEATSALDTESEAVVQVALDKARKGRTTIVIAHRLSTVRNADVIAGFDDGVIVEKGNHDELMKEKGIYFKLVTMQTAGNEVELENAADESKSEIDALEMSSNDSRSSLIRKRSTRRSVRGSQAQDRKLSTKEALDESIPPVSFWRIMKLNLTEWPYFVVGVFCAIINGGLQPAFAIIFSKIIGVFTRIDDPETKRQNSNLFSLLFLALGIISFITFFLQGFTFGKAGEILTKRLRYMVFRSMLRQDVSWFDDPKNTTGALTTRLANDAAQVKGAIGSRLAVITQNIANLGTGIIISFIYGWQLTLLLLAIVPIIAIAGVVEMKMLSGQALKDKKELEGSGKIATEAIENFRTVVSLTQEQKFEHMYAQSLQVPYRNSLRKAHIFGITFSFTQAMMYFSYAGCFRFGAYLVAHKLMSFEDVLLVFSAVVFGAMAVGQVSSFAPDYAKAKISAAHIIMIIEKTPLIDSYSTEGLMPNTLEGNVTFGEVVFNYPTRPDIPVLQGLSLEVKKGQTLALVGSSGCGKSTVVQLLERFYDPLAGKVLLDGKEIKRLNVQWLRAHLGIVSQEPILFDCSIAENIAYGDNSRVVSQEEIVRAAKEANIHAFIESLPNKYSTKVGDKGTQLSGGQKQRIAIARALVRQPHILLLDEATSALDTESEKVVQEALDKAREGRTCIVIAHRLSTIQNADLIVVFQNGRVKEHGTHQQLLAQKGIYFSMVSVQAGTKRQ
Procedure: The inhibition of the ABCB1 multidrug efflux pump ABCB1 by the tested compounds was evaluated using flow cytometry, measuring the retention of rhodamine 123 by ABCB1 (P-glycoprotein) in Colo 320 colonic adenocarcinoma cells. Briefly, the cell number of colonic adenocarcinoma cells were adjusted to 2 × 10^6 cells/mL, re-suspended in serum-free RPMI-1640 medium in the case of colonic adenocarcinoma cells, and distributed in 0.5 mL aliquots into Eppendorf centrifuge tubes. The tested compounds were added at different concentrations (0.2 and 2 µM; from 1 and 10 mM stock solutions, respectively), and the samples were incubated for 10 min at room temperature. Tariquidar was applied as the positive control (0.2 µM final concentration), and DMSO was used as the solvent control (at 2 v/v%). Next, 10 µL (5.2 µM final concentration) of the fluorochrome rhodamine 123 (Sigma, St. Louis, MO, USA) was added to the samples and the cells were incubated for 20 min at 37 °C. After the incubation period, the cells were washed twice and re-suspended in 0.5 mL PBS for analysis. The fluorescence of the gated cell population was measured with a Partec CyFlow® flow cytometer (Partec, Münster, Germany). The percentage of the mean fluorescence intensity was calculated for the treated MDR cells as compared with the untreated cells. The results were obtained from a representative flow cytometry experiment in which at least 20,000 individual cells of the overall population were evaluated for the rhodamine 123 retained inside the cells. The fluorescence activity ratio (FAR) was calculated based on the following equation, which relates the measured fluorescence values: FAR=Colo320treated / Colo320control/Colo205treated / Colo205control
The parameters evaluated from flow cytometry experiments were: Forward Scatter Count (FSC, provides information about cell size); Side Scatter Count (SSC, proportional to cell granularity or internal complexity); FL-1 (Mean fluorescence of the cells), and Fluorescence Activity Ratio (FAR), which was calculated by the equation given above.

[5] = system: MDR Colo 320 adenocarcinoma cells; experiment: Apoptosis induction (Annexin V-FITC / propidium iodide); assay type: cell-based, human; settings: 20 µM
Procedure: The assay was carried out using an Annexin V-FITC Apoptosis Detection Kit Cat. No. PF 032 from Calbiochem (EMD Biosciences. Inc. La Jolla. CA), according to the manufacturer's instructions. […] The cell suspension was distributed into 1 mL aliquots (1 × 10^6 cells) into a 24-well microplate and incubated overnight at 37 °C, with 5% CO2. On the following day, the medium was removed and a fresh medium was added to the cells. The cells were incubated in the presence of Se-compounds for 3 h at 37 °C. […] After a 3 h induction period, the culture medium was removed, the cells were washed with PBS, and a fresh medium was added to the cells. The 24-well plates were incubated overnight at 37 °C, with 5% CO2. After the incubation, the supernatant was collected in a microfuge tube and 200 μL of 0.25 trypsin (Trypsin-Versene) was added to the wells until the cells detached from the surfaces of the wells. The cells were centrifuged at 2000× g for 2 min at room temperature, the supernatant was removed, and the cells were re-suspended in fresh serum-free medium. After this procedure, apoptosis assay was carried out according to the rapid protocol of the kit using Annexin V-FITC and propidium iodide staining. […] The data were analysed by FlowJo^TM software (BD Biosciences, San Jose, NJ, USA).

[6] = system: B16 (skin melanoma); experiment: Cytotoxicity on B16 cells; assay type: cell-based, murine; settings: Mus musculus
Procedure: (§4) The activity of selenoesters was tested on several cancer cell lines, including HepG2 (hepatocellular carcinoma, CCL-23TM, ATCC); HeLa (cervical adenocarcinoma, CCL-2TM, ATCC); B16 (skin melanoma, CCL-6322TM, ATCC); and a non-cancerous cell line, HDF (human dermal fibroblasts, Sigma-Aldrich). HepG2, HeLa, B16, and HDF cell lines were cultivated in EMEM medium supplemented with 10% FBS, 2 mM L-glutamine, and 1% penicillin-streptomycin mixture. The HaCaT cell line was cultivated in DMEM medium supplemented with 10% FBS and 1% penicillin-streptomycin mixture. All of the cells were cultivated in a CO2 incubator (5% CO2, 37 °C). Twice per week, the cell lines were passaged according to a standardized protocol with a trypsin-EDTA solution.
as §3

[7] = system: HeLa (cervical adenocarcinoma); experiment: Cytotoxicity on HeLa cells; assay type: cell-based, human; settings: ratio IC50 non-tumour cells / IC50 cancer cells
[8] = system: HepG2 (hepatocellular carcinoma); experiment: Cytotoxicity on HepG2 cells; assay type: cell-based; settings: Homo sapiens
Procedure: as §4, §3

[9] = system: HeLa (cervical adenocarcinoma); experiment: Cytotoxicity on HeLa cells; assay type: cell-based; settings: Homo sapiens
Procedure: as §4, §3

[10] = system: HaCaT cell line; experiment: Toxicity on HaCaT cells (IC10 used as dose); assay type: cell-based; settings: Homo sapiens, concentration inhibiting 10% of the population, highest non-toxic concentration, read-out: Dose IC10
Procedure: as §4, with “solution. […]” for “solution.”
Wound healing activity of selenoesters was evaluated as the ability of the cells to migrate and close the gap created on the monolayer of human keratinocytes (HaCaT cell line). The tested substances were applied in the highest possible non-toxic concentration (IC10, concentration inhibiting 10% of the population). In general, ketone-selenoesters were more toxic (except K4 and K1) than cyano-selenoesters (except N4); therefore, they were applied at lower doses (0.17–0.30 µM) when compared to cyanoselenoesters (0.36–0.64 µM). Compounds K1, K4, and N4 were applied at a concentration of 0.30, 0.46, and 0.20 µM, respectively. As could be seen in Table 8, all ketone-selenoesters stimulated wound healing more effectively in comparison to both untreated control (p < 0.0000005) and allantoin (p < 0.00005). […] Only samples N1, N2, N4, and N7 closed effectively the damaged wound in 24 h, with the gap closure around 70%.

[11] = system: resistant Colo 320 colon adenocarcinoma cells expressing the ABCB1 transporter; experiment: Checkerboard combination assay with doxorubicin; assay type: cell-based, human; settings: starting conc. 10 µM
Procedure: A checkerboard microplate method was applied to study the effect of drug interactions between the selenocompounds and the chemotherapeutic drug doxorubicin on resistant Colo 320 colon adenocarcinoma cells expressing the ABCB1 transporter. Results were expressed in terms of the combination index (CI) values at 50% growth inhibition (ED50), which were determined by using CompuSyn software to plot 4 or 5 data points for each ratio.
To perform the experiment, the dilutions of doxorubicin were made in a horizontal direction in 100 µL, and the dilutions of the Se-compounds were made vertically in the microtiter plate in a volume of 50 µL. The cells were re-suspended in the culture medium and distributed into each well in 50 µL portions containing 6000 cells. The plates were incubated for 72 h at 37 °C in a CO2 incubator. The cell growth rate was determined after MTT staining. At the end of the incubation period, 20 μL of MTT solution was added to each well. After incubation at 37 °C for 4 h, 100 μL of SDS was added to each well and the plates were further incubated at 37 °C overnight. The optical density (OD) was measured at 540/630 nm with the Multiscan EX ELISA reader.

[12] = system: HepG2 (hepatocellular carcinoma); experiment: Cytotoxicity on HepG2 cells; assay type: cell-based, human; settings: ratio IC50 non-tumour cells / IC50 cancer cells

Structure (SMILES): COc1cccc2c1C(=O)c1c(O)c3c(c(O)c1C2=O)C[C@@](O)(C(=O)CO)C[C@@H]3O[C@H]1C[C@H](N)[C@H](O)[C@H](C)O1 [Dox., doxorubicin, reference compound]
IC50 [1]: 7.61 µM
SI MRC-5/Colo 320 [1]: 0.36
IC50 at 24 h ([2]; MRC-5 embryonal lung fibroblast cells, 24 h, MTT, read-out: MRC-5 (IC50 µM) Mean): 2.73 µM
IC50 [3]: 3.46 µM
SI MRC-5/Colo 205 [3]: 0.79

FSC (Forward Scatter Count) [4]: 1957
SSC (Side Scatter Count) [4]: 1074
FAR (fluorescence activity ratio) ([4]; rhodamine 123, FAR above 2 considered effective): 28.04
Structure (SMILES): COc1cc2c(cc1OC)CN(CCc1ccc(NC(=O)c3cc(OC)c(OC)cc3NC(=O)c3cnc4ccccc4c3)cc1)CC2 [Tariquidar, reference compound]

Structure (SMILES): c1ccc2c(c1)Nc1c(ccc3ccccc13)S2 [M627, 12H-benzo(α)phenothiazine, reference compound]
Cell Death (%) Treated Sample-Untreated Sample ([5]; positive control): 0.00%
Early Apoptosis (%) Treated Sample-Untreated Sample ([5]; positive control): 13.3%
Late Apoptosis (%) Treated Sample-Untreated Sample ([5]; positive control): 36.1%
Total Apoptotic Events (Early + Late, %) ([5]; positive control): 49.4%
Apoptosis Quotient (%) ([5]; reference): 100%

Structure (SMILES): N#CC[Se]C(=O)c1cccc(C(F)(F)F)c1 [N5, Se-(Cyanomethyl) 3-(Trifluoromethyl)benzoselenoate]
IC50 [6]: 1.4 µM
SI MRC-5/HeLa [7]: >6 *
IC50 [1]: 5.22 µM
SI MRC-5/Colo 320 [1]: >6 *
IC50 at 24 h [2]: > 100 µM
IC50 [8]: 9.8 µM
IC50 [9]: 2.5 µM
IC10 [10]: 600 nM
IC50 [3]: 2.1 µM
SI MRC-5/Colo 205 [3]: >6 *
Type of Interaction ([11]; ratio 1.2:1): Strong antagonism
Type of Interaction ([11]; ratio 2.4:1): Strong antagonism
Type of Interaction ([11]; ratio 4.8:1): Slight antagonism
Type of Interaction ([11]; ratio 9.6:1): Additive effect
Type of Interaction ([11]; ratio 19.2:1): Slight antagonism
Type of Interaction ([11]; ratio 38.4:1): Moderate antagonism
SI MRC-5/HepG2 [12]: >6 *
